Legend:
[1] = biological target: Myosin light chain kinase, smooth muscle (Gallus gallus, UniProt P11799); assay: Inhibition of chicken SmMLCK expressed in Escherichia coli
[2] = biological target: Phosphatidylinositol 4,5-bisphosphate 3-kinase catalytic subunit alpha isoform (Bos taurus) (UniProt P32871); details: Sf9, 1 uM
Description: Inhibition of His-tagged bovine PI3K expressed in Sf9 cells at 1 uM

[3] = biological target: Myosin light chain kinase, smooth muscle (Gallus gallus) (UniProt P11799); assay: Inhibition of chicken SmMLCK expressed in Escherichia coli at 1 uM
[4] = biological target: Myosin light chain kinase 2, skeletal/cardiac muscle (Homo sapiens) (UniProt Q9H1R3); assay: Inhibition of His-tagged human SkMLCK expressed in Escherichia coli at 1 uM
Sequence of Myosin light chain kinase 2, skeletal/cardiac muscle (Homo sapiens) (Q9H1R3 whole entry): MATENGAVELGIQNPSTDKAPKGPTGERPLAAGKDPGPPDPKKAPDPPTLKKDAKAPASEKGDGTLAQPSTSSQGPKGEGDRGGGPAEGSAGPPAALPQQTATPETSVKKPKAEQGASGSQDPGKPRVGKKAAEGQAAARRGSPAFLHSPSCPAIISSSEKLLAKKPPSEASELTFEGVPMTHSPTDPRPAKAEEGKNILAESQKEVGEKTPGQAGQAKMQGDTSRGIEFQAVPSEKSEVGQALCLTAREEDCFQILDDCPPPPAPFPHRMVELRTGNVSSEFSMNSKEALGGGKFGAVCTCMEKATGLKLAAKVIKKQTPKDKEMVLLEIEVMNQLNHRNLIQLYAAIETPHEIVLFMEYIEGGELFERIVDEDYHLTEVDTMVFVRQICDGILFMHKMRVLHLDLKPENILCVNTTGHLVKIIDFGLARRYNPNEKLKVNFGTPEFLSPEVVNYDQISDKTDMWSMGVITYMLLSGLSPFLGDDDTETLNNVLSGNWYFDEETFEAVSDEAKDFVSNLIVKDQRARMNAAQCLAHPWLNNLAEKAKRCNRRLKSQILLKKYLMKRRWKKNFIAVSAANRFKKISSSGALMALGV

Bos taurus = organism: Bos taurus; assay: Inhibition of bovine heart PKA at 20 uM; values are per cent of control
[5] = biological target: Phosphatidylinositol 4,5-bisphosphate 3-kinase catalytic subunit alpha isoform (Bos taurus) (UniProt P32871); assay: Inhibition of His-tagged bovine PI3K expressed in Sf9 cells at 20 uM
[6] = biological target: T1, Mitogen-activated protein kinase 12 (Homo sapiens) (UniProt P53778); assay: Inhibition of His-tagged human SAPK3/p38gamma expressed in Escherichia coli at 20 uM; values are per cent of control
T1 sequence (whole entry): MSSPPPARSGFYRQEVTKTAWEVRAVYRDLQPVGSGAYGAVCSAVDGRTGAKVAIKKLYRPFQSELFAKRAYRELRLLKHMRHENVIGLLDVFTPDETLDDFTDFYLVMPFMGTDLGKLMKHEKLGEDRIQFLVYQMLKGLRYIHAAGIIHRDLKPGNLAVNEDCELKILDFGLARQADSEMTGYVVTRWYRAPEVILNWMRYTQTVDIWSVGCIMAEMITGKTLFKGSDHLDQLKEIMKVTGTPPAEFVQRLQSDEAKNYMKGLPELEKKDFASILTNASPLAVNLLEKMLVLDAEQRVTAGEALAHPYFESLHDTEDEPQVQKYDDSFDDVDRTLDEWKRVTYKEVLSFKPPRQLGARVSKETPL

[7] = biological target: RAC-alpha serine/threonine-protein kinase (Homo sapiens) (UniProt P31749); assay: Inhibition of human PKBalpha expressed in SF9 cells at 20 uM; values are per cent of control
Sequence of RAC-alpha serine/threonine-protein kinase (Homo sapiens) (P31749 whole entry): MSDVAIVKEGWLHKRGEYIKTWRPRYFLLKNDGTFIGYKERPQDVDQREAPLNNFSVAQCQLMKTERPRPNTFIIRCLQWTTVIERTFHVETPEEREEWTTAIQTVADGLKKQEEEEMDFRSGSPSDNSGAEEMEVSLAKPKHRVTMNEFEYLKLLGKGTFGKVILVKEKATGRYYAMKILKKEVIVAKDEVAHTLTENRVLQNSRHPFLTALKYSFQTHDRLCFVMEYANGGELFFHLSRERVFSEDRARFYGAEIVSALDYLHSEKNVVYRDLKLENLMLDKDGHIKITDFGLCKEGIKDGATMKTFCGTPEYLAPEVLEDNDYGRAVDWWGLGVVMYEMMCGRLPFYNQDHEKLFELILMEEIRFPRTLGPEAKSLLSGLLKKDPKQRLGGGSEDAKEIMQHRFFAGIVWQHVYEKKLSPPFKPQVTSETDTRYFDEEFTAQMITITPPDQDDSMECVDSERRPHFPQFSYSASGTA

Rattus norvegicus = organism: Rattus norvegicus; assay: Inhibition of rat liver AMPK at 20 uM; values are per cent of control
[8] = biological target: T2, Ribosomal protein S6 kinase beta-1 (Homo sapiens, UniProt P23443); assay: Inhibition of His-tagged human S6K1 expressed in Escherichia coli at 20 uM; values are per cent of control
Target sequence in this assay (P23443 whole entry, looked up): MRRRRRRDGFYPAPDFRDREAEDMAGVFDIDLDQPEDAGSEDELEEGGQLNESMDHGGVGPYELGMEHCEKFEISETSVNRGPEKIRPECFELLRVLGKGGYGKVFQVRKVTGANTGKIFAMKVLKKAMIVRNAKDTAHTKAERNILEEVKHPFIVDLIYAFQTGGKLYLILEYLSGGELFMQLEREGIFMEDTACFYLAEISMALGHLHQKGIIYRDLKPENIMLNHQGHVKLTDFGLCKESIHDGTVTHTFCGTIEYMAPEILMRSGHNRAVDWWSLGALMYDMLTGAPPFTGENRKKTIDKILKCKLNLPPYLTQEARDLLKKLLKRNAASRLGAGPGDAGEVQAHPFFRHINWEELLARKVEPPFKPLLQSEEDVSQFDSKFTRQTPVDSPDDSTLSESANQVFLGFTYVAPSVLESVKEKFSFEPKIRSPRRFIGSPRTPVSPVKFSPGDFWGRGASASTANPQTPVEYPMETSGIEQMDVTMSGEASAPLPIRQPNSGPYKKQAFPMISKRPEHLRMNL

Oryctolagus cuniculus = organism: Oryctolagus cuniculus; assay: Inhibition of PHK from rabbit skeletal muscle at 20 uM; values are per cent of control; details: Muscle tissue
[9] = biological target: T3, Protein kinase C alpha type (Homo sapiens, UniProt P17252); assay: Inhibition of His-tagged human PKCalpha expressed in Escherichia coli at 20 uM; values are per cent of control
[10] = biological target: Mitogen-activated protein kinase 11 (Homo sapiens) (UniProt Q15759); assay: Inhibition of His-tagged human SAPK2b/p38b2 expressed in Escherichia coli at 20 uM; values are per cent of control
Sequence of Mitogen-activated protein kinase 11 (Homo sapiens) (Q15759 whole entry): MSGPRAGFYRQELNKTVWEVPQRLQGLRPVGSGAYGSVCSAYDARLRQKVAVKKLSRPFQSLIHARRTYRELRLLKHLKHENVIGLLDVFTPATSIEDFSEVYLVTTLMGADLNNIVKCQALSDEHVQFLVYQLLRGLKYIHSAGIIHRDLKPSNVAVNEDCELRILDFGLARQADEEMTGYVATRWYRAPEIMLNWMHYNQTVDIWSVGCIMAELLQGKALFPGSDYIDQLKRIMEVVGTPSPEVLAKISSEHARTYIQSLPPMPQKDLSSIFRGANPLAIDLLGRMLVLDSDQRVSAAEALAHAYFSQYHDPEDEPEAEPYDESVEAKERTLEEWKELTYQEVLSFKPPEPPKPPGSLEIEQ

[11] = biological target: T4, Mitogen-activated protein kinase 13 (Homo sapiens) (UniProt O15264); assay: Inhibition of His-tagged human SAPK4/p38delta expressed in Escherichia coli at 20 uM; details: values are per cent of control
T4 sequence (whole entry): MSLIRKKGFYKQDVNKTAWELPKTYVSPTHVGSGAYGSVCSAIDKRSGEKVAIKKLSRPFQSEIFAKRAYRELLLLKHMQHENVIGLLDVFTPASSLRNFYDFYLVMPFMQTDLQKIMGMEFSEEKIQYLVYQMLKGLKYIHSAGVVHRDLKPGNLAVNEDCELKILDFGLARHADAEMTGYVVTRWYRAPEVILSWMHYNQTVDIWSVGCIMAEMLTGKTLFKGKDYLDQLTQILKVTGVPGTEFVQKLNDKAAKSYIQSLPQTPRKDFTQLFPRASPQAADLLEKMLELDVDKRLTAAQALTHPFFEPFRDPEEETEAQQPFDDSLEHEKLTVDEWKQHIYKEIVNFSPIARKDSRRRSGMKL

[12] = biological target: Mitogen-activated protein kinase 8 (Homo sapiens) (UniProt P45983); assay: Inhibition of His-tagged human JNK1a1/SAPK1c expressed in Escherichia coli at 20 uM; values are per cent of control
Sequence of Mitogen-activated protein kinase 8 (Homo sapiens) (P45983 whole entry): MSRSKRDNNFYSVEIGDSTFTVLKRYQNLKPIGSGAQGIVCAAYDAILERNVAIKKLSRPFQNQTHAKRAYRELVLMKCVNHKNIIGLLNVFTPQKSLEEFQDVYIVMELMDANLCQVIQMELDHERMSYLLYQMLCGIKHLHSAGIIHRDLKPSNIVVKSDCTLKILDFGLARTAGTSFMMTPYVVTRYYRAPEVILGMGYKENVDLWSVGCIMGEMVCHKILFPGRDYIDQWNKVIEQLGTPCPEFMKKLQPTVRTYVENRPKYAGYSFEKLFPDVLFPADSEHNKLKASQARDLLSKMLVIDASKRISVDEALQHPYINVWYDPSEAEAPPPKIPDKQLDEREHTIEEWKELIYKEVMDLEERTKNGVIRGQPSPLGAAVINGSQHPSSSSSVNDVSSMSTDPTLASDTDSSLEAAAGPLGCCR

[13] = biological target: Glycogen synthase kinase-3 beta (Homo sapiens, UniProt P49841); assay: Inhibition of His-tagged human GSK3b expressed in Sf21 cells
[14] = biological target: T3, Protein kinase C alpha type; assay: Inhibition of His-tagged human PKCalpha expressed in Escherichia coli
[15] = biological target: T2, Ribosomal protein S6 kinase beta-1; assay: Inhibition of His-tagged human S6K1 expressed in Escherichia coli
Target sequence in this assay (P23443 whole entry): as the sequence (P23443 whole entry, looked up) above

[16] = biological target: Ribosomal protein S6 kinase alpha-5 (Homo sapiens, UniProt O75582); assay: Inhibition of His-tagged human MSK1 expressed in Sf9 cells
Sequence of Ribosomal protein S6 kinase alpha-5 (O75582 whole entry): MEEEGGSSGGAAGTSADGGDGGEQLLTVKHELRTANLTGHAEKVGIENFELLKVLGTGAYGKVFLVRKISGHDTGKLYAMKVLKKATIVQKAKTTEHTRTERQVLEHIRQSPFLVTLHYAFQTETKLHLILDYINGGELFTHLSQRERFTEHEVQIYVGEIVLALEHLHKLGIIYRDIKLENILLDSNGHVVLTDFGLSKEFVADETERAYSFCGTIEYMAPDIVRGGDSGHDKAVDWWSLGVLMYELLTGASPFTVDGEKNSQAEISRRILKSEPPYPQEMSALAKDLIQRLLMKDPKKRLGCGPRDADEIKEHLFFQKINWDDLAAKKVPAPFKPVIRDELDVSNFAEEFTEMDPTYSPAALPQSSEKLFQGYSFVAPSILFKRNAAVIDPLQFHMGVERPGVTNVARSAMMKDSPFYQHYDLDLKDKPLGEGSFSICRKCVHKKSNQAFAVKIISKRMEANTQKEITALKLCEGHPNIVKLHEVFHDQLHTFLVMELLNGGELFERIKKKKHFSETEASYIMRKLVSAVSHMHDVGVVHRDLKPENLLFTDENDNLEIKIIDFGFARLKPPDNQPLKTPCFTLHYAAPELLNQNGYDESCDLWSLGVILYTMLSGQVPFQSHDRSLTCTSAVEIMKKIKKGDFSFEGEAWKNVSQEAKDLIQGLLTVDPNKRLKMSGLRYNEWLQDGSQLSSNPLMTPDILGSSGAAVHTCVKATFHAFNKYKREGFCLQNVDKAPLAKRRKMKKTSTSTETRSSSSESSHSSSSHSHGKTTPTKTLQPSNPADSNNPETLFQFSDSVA

[17] = Inhibition of MAPKAPK1b from rabbit skeletal muscle; format: tissue-based, Oryctolagus cuniculus, Muscle tissue
[18] = biological target: MAP kinase-activated protein kinase 5 (Homo sapiens, UniProt Q8IW41); format: cell-based, Sf9
Description: Inhibition of His-tagged human PRAK expressed in Sf9 cells

[19] = biological target: Protein kinase C delta type (Homo sapiens) (UniProt Q05655); details: 20 uM
Description: Inhibition of His-tagged human PKCdelta expressed in Escherichia coli at 20 uM

[20] = biological target: MAP kinase-activated protein kinase 2 (Homo sapiens, UniProt P49137); assay: Inhibition of His-tagged human MAPKAPK2 expressed in Escherichia coli […]

Sequence of Phosphatidylinositol 4,5-bisphosphate 3-kinase catalytic subunit alpha isoform (Bos taurus) (P32871 whole entry, canonical isoform): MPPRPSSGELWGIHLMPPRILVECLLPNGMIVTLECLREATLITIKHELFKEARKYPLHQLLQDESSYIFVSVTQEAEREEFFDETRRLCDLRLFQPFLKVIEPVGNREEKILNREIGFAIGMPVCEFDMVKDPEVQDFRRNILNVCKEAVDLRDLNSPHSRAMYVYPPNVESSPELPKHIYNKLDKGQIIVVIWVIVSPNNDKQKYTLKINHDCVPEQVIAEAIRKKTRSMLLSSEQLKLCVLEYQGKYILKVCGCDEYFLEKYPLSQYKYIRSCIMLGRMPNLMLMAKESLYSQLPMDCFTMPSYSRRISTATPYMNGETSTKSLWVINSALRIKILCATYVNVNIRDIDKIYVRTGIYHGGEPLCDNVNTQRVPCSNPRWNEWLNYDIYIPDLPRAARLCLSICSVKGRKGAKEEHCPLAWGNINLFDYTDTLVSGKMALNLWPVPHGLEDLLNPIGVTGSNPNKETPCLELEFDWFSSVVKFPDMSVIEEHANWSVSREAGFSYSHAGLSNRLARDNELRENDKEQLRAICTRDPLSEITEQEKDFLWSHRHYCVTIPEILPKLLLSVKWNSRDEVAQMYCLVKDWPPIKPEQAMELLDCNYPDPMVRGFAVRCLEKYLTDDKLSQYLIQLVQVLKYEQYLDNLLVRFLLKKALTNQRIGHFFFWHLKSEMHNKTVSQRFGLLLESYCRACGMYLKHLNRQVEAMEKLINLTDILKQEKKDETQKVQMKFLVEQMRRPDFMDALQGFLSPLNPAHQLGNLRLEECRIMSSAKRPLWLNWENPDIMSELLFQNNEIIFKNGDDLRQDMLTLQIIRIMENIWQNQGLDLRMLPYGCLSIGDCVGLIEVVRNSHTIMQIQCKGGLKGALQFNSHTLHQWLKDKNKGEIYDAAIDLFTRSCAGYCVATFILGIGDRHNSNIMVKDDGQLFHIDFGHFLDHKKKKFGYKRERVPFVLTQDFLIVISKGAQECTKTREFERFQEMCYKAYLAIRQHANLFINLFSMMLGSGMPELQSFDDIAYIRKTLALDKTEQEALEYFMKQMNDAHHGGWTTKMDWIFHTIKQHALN

| Compound | residual activity (Bos taurus) | residual activity [6] | residual activity [7] | residual activity (Rattus norvegicus) | residual activity [8] | level, % of control (Oryctolagus cuniculus) | residual activity [9] | residual activity [10] | residual activity [11] | residual activity [12] | other results |
| --- | --- | --- | --- | --- | --- | --- | --- | --- | --- | --- | --- |
| COC[C@H]1OC(=O)c2coc3c2[C@@]1(C)C1=C(C3=O)[C@@H]2CCC(=O)[C@@]2(C)C[C@H]1OC(C)=O [WORTMANNIN] |  |  |  |  |  |  |  |  |  |  | IC50 [1]: 0.26 µM; inhibition [2]: 0%; inhibition [3]: 4%; inhibition [4]: 4% |
| O=c1c(O)c(-c2ccc(O)c(O)c2)oc2cc(O)cc(O)c12 | 104% | 132% | 99% | 16% | 25% | 32% | 70% | 150% | 103% | 101% | inhibition [5]: 18% |
| Cn1cc(C2=C(c3cn(CCCSC(=N)N)c4ccccc34)C(=O)NC2=O)c2ccccc21 [BISINDOLYLMALEIMIDE IX] |  |  |  |  |  |  |  |  |  |  | IC50 [13]: 0.038 µM; IC50 [14]: 0.033 µM; IC50 [15]: 0.015 µM; IC50 [16]: 0.008 µM; IC50 [17]: 0.003 µM |
| CC(=O)c1c(O)c(C)c(O)c(Cc2c(O)c3c(c(C(=O)/C=C/c4ccccc4)c2O)OC(C)(C)C=C3)c1O [ROTTLERIN] | 17% | 146% | 27% | 98% | 98% | 63% | 95% | 127% | 130% | 49% | IC50 [18]: 1.9 µM; inhibition [19]: 101%; IC50 [20]: 5.4 µM |

From ChEMBL document CHEMBL1240295, “Specificity and mechanism of action of some commonly used protein kinase inhibitors” (Biochem J, 2000)
